{"source": "patent US20040266732A1", "about": "“Therapeutic agents, methods, and treatments” (priority 2002, published 2004)", "assay_in_all_cases": "NCI 60 cell-line test", "format_in_all_cases": "cell-based, human", "key": {"NCI-H23": {"test_system": "NCI-H23", "conditions": "NCI-H23 (Non-Small Cell Lung Cancer)", "protocol": "(§1) Methodology: The NCI conducted a test of the MT103 drug against 60 human cell lines, with a minimum of five concentrations of MT103 at 10-fold dilutions. A 48 hour continuous drug exposure was used, and a sulforhodamine B (SRB) protein assay was used to estimate cell viability and growth. The human tumor cell lines of the cancer screening panel were grown in RPMI 1640 medium containing 5% fetal bovine serum and 2 mM L-glutamine. Cells were inoculated into 96 well microtiter plates in 100 μL at plating densities ranging from 5,000 to 40,000 cells/well depending on the doubling time of individual cell lines. After cell inoculation, the microtiter plates are incubated at 37° C., 5% CO2, 95% air, and 100% relative humidity for 24 h prior to addition of experimental drugs.\n(§2) After 24 h, two plates of each cell line were fixed in situ with TCA, to represent a measurement of the cell population for each cell line at the time of drug addition (Tz). MT103 was solubilized in dimethyl sulfoxide at 400-fold the desired final maximum test concentration and stored frozen prior to use. At the time of drug addition, an aliquot of frozen concentrate was thawed and diluted to twice the desired final maximum test concentration with complete medium containing 50 μg/ml gentamicin. Additional four, 10-fold or ½ log serial dilutions were made to provide a total of five drug concentrations plus control. Aliquots of 100 μl of these different drug dilutions were added to the appropriate microtiter wells already containing 100 μl of medium, resulting in the required final drug concentrations.\n(§3) Following drug addition, the plates were incubated for an additional 48 h at 37° C., 5% CO2, 95% air, and 100% relative humidity. For adherent cells, the assay was terminated by the addition of cold TCA. Cells were fixed in situ by the gentle addition of 50 μl of cold 50% (w/v) TCA (final concentration, 10% TCA) and incubated for 60 minutes at 4° C. The supernatant was discarded, and the plates were washed five times with tap water and air dried. Sulforhodamine B (SRB) solution (100 μl) at 0.4% (w/v) in 1% acetic acid was added to each well, and plates were incubated for 10 minutes at room temperature. After staining, unbound dye was removed by washing five times with 1% acetic acid and the plates were air-dried. Bound stain was subsequently solubilized with 10 mM trizma base, and the absorbance was read on an automated plate reader at a wavelength of 515 nm. For suspension cells, the methodology was the same except that the assay was terminated by fixing settled cells at the bottom of the wells by gently adding 50 μl of 80% TCA (final concentration, 16% TCA). Using the seven absorbance measurements (time zero, (Tz), control growth, (C), and test growth in the presence of drug at the five concentration levels (Ti)), the percentage growth was calculated at each of the drug concentrations levels. Percentage growth inhibition was calculated as:\n(§4) [(Ti-Tz)/(C-Tz)]×100 for concentrations for which Ti>/=Tz\n(§5) [(Ti-Tz)/Tz]×100 for concentrations for which Ti<Tz.\n(§6) Three dose response parameters were calculated for each experimental agent. Growth inhibition of 50% (GI50) was calculated from [(Ti-Tz)/(C-Tz)]×100=50, which is the drug concentration resulting in a 50% reduction in the net protein increase (as measured by SRB staining) in control cells during the drug incubation. The drug concentration resulting in total growth inhibition (TGI) was calculated from Ti=Tz. The LC50 (concentration of drug resulting in a 50% reduction in the measured protein at the end of the drug treatment as compared to that at the beginning) indicating a net loss of cells following treatment was calculated from [(Ti-Tz)/Tz]×100=−50. Values were calculated for each of these three parameters if the level of activity is reached; however, if the effect was not reached or was exceeded, the value for that parameter was expressed as greater or less than the maximum or minimum concentration tested."}, "NCI-H322M": {"test_system": "NCI-H322M", "conditions": "NCI-H322M (Non-Small Cell Lung Cancer)", "protocol": "as §1, §2, §3, §4, §5, §6"}, "786-0": {"test_system": "786-0", "conditions": "786-0 (Renal Cancer)", "protocol": "as §1, §2, §3, §4, §5, §6"}, "RXF 393": {"test_system": "RXF 393", "conditions": "RXF 393 (Renal Cancer)", "protocol": "as §1, §2, §3, §4, §5, §6"}, "PC-3": {"test_system": "PC-3", "conditions": "PC-3 (Prostate Cancer)", "protocol": "as §1, §2, §3, §4, §5, §6"}, "CAKI-1": {"test_system": "CAKI-1", "conditions": "CAKI-1 (Renal Cancer)", "protocol": "as §1, §2, §3, §4, §5, §6"}, "SF-295": {"test_system": "SF-295", "conditions": "SF-295 (CNS Cancer)", "protocol": "as §1, §2, §3, §4, §5, §6"}, "EKVX": {"test_system": "EKVX", "conditions": "EKVX (Non-Small Cell Lung Cancer)", "protocol": "as §1, §2, §3, §4, §5, §6"}, "SK-MEL-2": {"test_system": "SK-MEL-2", "conditions": "SK-MEL-2 (Melanoma)", "protocol": "as §1, §2, §3, §4, §5, §6"}, "SK-MEL-5": {"test_system": "SK-MEL-5", "conditions": "SK-MEL-5 (Melanoma)", "protocol": "as §1, §2, §3, §4, §5, §6"}, "HOP-92": {"test_system": "HOP-92", "protocol": "as §1, §2, §3, §4, §5, §6"}, "OVCAR-3": {"test_system": "OVCAR-3", "conditions": "OVCAR-3 (Ovarian Cancer)", "protocol": "as §1, §2, §3, §4, §5, §6"}, "MDA-MB-435": {"test_system": "MDA-MB-435", "conditions": "MDA-MB-435 (Breast Cancer)", "protocol": "as §1, §2, §3, §4, §5, §6"}, "KM12": {"test_system": "KM12", "conditions": "KM12 (Colon Cancer)", "protocol": "as §1, §2, §3, §4, §5, §6"}, "HT29": {"test_system": "HT29", "conditions": "HT29 (Colon Cancer)", "protocol": "as §1, §2, §3, §4, §5, §6"}, "[1]": {"conditions": "read-out: LC50 (the source's name)"}}}
{"smiles": "CC1(C)C2CC[C@@]1(CS(=O)(=O)N(C1CCCCC1)C1CCCCC1)C(O)C2", "note": "(stereo partly drawn) [MT103]", "values": [{"measurement": "IC50", "setting": "NCI-H23; read-out: G150", "value": 26.9, "unit": "µM"}, {"measurement": "CC50", "setting": "NCI-H23; [1]", "value": "> 100", "unit": "µM"}, {"measurement": "TGI", "setting": "NCI-H322M", "value": ">1.00E−04"}, {"measurement": "IC50", "setting": "NCI-H322M; read-out: G150", "value": 27.3, "unit": "µM"}, {"measurement": "CC50", "setting": "NCI-H322M; [1]", "value": "> 100", "unit": "µM"}, {"measurement": "TGI", "setting": "786-0", "value": ">1.00E−04"}, {"measurement": "IC50", "setting": "786-0; read-out: G150", "value": 46.3, "unit": "µM"}, {"measurement": "CC50", "setting": "786-0; [1]", "value": "> 100", "unit": "µM"}, {"measurement": "TGI", "setting": "RXF 393", "value": "9.77E−05"}, {"measurement": "IC50", "setting": "RXF 393; read-out: G150", "value": 24.2, "unit": "µM"}, {"measurement": "CC50", "setting": "RXF 393; [1]", "value": "> 100", "unit": "µM"}, {"measurement": "TGI", "setting": "PC-3", "value": ">1.00E−04"}, {"measurement": "IC50", "setting": "PC-3; read-out: G150", "value": 27.8, "unit": "µM"}, {"measurement": "CC50", "setting": "PC-3; [1]", "value": "> 100", "unit": "µM"}, {"measurement": "TGI", "setting": "CAKI-1", "value": "9.05E−05"}, {"measurement": "IC50", "setting": "CAKI-1; read-out: G150", "value": 23.5, "unit": "µM"}, {"measurement": "CC50", "setting": "CAKI-1; [1]", "value": "> 100", "unit": "µM"}, {"measurement": "TGI", "setting": "SF-295", "value": ">1.00E−04"}, {"measurement": "IC50", "setting": "SF-295; read-out: G150", "value": 22.6, "unit": "µM"}, {"measurement": "CC50", "setting": "SF-295; [1]", "value": "> 100", "unit": "µM"}, {"measurement": "TGI", "setting": "EKVX", "value": "9.83E−05"}, {"measurement": "IC50", "setting": "EKVX; read-out: G150", "value": 31.3, "unit": "µM"}, {"measurement": "CC50", "setting": "EKVX; [1]", "value": "> 100", "unit": "µM"}, {"measurement": "TGI", "setting": "SK-MEL-2", "value": "6.77E−05"}, {"measurement": "IC50", "setting": "SK-MEL-2; read-out: G150", "value": 26, "unit": "µM"}, {"measurement": "CC50", "setting": "SK-MEL-2; [1]", "value": "> 100", "unit": "µM"}, {"measurement": "TGI", "setting": "SK-MEL-5", "value": "3.61E−05"}, {"measurement": "IC50", "setting": "SK-MEL-5; read-out: G150", "value": 16.8, "unit": "µM"}, {"measurement": "CC50", "setting": "SK-MEL-5; [1]", "value": 77.7, "unit": "µM"}, {"measurement": "TGI", "setting": "HOP-92; HOP-92 (Non-Small Cell Lung Cancer)", "value": "3.16E−05"}, {"measurement": "IC50", "setting": "HOP-92; HOP-92 (Non-Small Cell Lung Cancer), read-out: G150", "value": 2.75, "unit": "µM"}, {"measurement": "CC50", "setting": "HOP-92; HOP-92 (Non-Small Cell Lung Cancer), read-out: LC50 (the source's name)", "value": "> 100", "unit": "µM"}, {"measurement": "−logGI50 value", "setting": "HOP-92; HOP-92, as tested by the NCI, FIG. 1", "value": 5.6}, {"measurement": "TGI", "setting": "OVCAR-3", "value": "6.30E−05"}, {"measurement": "IC50", "setting": "OVCAR-3; read-out: G150", "value": 23, "unit": "µM"}, {"measurement": "CC50", "setting": "OVCAR-3; [1]", "value": "> 100", "unit": "µM"}, {"measurement": "TGI", "setting": "MDA-MB-435", "value": "9.88E−05"}, {"measurement": "IC50", "setting": "MDA-MB-435; read-out: G150", "value": 28.4, "unit": "µM"}, {"measurement": "CC50", "setting": "MDA-MB-435; [1]", "value": "> 100", "unit": "µM"}, {"measurement": "TGI", "setting": "KM12", "value": "9.73E−05"}, {"measurement": "IC50", "setting": "KM12; read-out: G150", "value": 28.4, "unit": "µM"}, {"measurement": "CC50", "setting": "KM12; [1]", "value": "> 100", "unit": "µM"}, {"measurement": "TGI", "setting": "HT29", "value": ">1.00E−04"}, {"measurement": "IC50", "setting": "HT29; read-out: G150", "value": 23.5, "unit": "µM"}, {"measurement": "CC50", "setting": "HT29; [1]", "value": "> 100", "unit": "µM"}]}
